The values below come from patent publication US9169254B2, “Spiroimidazolone derivative” (Chugai Seiyaku Kabushiki Kaisha, priority 2009, dated 2015).

This test has as its target T1, human PTH1 receptor (Homo sapiens, UniProt Q03431).
T1 sequence (Q03431 27-593): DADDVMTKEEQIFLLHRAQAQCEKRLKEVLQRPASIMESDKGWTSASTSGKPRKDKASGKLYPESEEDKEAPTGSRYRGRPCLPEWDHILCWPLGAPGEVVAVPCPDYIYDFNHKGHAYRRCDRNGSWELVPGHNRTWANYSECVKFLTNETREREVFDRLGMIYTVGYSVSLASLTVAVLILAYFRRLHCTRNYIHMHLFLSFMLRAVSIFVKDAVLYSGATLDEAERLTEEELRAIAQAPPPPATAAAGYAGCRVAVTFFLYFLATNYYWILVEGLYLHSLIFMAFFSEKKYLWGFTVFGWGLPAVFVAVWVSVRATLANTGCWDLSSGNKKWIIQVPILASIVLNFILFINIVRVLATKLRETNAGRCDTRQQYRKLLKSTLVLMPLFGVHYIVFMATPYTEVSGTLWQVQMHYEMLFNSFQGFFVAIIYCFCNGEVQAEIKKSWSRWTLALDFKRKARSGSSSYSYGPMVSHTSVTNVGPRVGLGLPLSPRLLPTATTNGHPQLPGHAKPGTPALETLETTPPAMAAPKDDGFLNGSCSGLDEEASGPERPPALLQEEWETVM
In words: In vitro cAMP signal activity in HKRK-B7 cells (LLC-PK1 cells overexpressing the human PTH1 receptor). Format: cell-based. The following applies: HKRK-B7 cells; compound at 1×10^−3 M; cAMP produced as percentage of that produced by hPTH(1-34) at 100 nM.
For `Cc1cc(C(=O)N(C)C)ccc1CCS(=O)(=O)N1CCC2(CC1)N=C(c1ccc(Cl)cc1C)NC2=O` [Compound 128, 4-{2-[2-(4-chloro-2-methyl-phenyl)-4-oxo-1,3,8-triaza-spiro[4.5]dec-1-ene-8-sulfonyl]-ethyl}-3,N,N-trimethyl-benzamide], the “cAMP production activity (%)” value was found to be 57%.

On to `Cc1cc(C(=O)N(C)C)ccc1CCS(=O)(=O)N1CCC2(CC1)N=C(c1ccc(Cl)cc1F)NC2=O` [Compound 129, 4-{2-[2-(4-chloro-2-fluoro-phenyl)-4-oxo-1,3,8-triaza-spiro[4.5]dec-1-ene-8-sulfonyl]-ethyl}-3,N,N-trimethyl-benzamide], for which the “cAMP production activity (%)” value was found to be 3.7%.

Take `Cc1cc(C(=O)N(C)C)ccc1CCS(=O)(=O)N1CCC2(CC1)N=C(c1cccc(COC(C)C)c1)NC2=O` [Compound 130, 4-{2-[2-(3-isopropoxymethyl-phenyl)-4-oxo-1,3,8-triaza-spiro[4.5]dec-1-ene-8-sulfonyl]-ethyl}-3,N,N-trimethyl-benzamide]: the “cAMP production activity (%)” value is on record as 65%.

Take `Cc1cc(C(=O)N(C)C)ccc1CCS(=O)(=O)N1CCC2(CC1)N=C(COc1ccc(Cl)cc1Cl)NC2=O` [Compound 131, 4-{2-[2-(2,4-dichloro-phenoxymethyl)-4-oxo-1,3,8-triaza-spiro[4.5]dec-1-ene-8-sulfonyl]-ethyl}-3,N,N-trimethyl-benzamide]: the “cAMP production activity (%)” value came out at 72%.

Consider `Cc1cc(C(=O)N(C)C)ccc1CCS(=O)(=O)N1CCC2(CC1)N=C(c1cccc(Cl)c1C)NC2=O` [Compound 133, 4-{2-[2-(3-chloro-2-methyl-phenyl)-4-oxo-1,3,8-triaza-spiro[4.5]dec-1-ene-8-sulfonyl]-ethyl}-3,N,N-trimethyl-benzamide], for which the “cAMP production activity (%)” value is 82%.

`Cc1cc(C(=O)N(C)C)ccc1CCS(=O)(=O)N1CCC2(CC1)N=C(Cc1ccc(Cl)cc1Cl)NC2=O` [Compound 134, 4-{2-[2-(2,4-dichloro-benzyl)-4-oxo-1,3,8-triaza-spiro[4.5]dec-1-ene-8-sulfonyl]-ethyl}-3,N,N-trimethyl-benzamide]: the “cAMP production activity (%)” value came to 77%.

For `Cc1cc(C(=O)N(C)C)ccc1CCS(=O)(=O)N1CCC2(CC1)N=C(Cc1cccc(C(F)(F)F)c1)NC2=O` [Compound 135, 3,N,N-trimethyl-4-{2-[4-oxo-2-(3-trifluoromethyl-benzyl)-1,3,8-triaza-spiro[4.5]dec-1-ene-8-sulfonyl]-ethyl}-benzamide], the “cAMP production activity (%)” value came out at 67%.

For `Cc1cc(C(=O)N(C)C)ccc1CCS(=O)(=O)N1CCC2(CC1)N=C(C1(C(F)(F)F)CC1)NC2=O` [Compound 136, 3,N,N-trimethyl-4-{2-[4-oxo-2-(1-trifluoromethyl-cyclopropyl)-1,3,8-triaza-spiro[4.5]dec-1-ene-8-sulfonyl]-ethyl}-benzamide], the “cAMP production activity (%)” value turned out to be 72%.

With `Cc1cc(C(=O)N(C)C)ccc1CCS(=O)(=O)N1CCC2(CC1)N=C(C1(C(F)(F)F)CCC1)NC2=O` [Compound 137, 3,N,N-trimethyl-4-{2-[4-oxo-2-(1-trifluoromethyl-cyclobutyl)-1,3,8-triaza-spiro[4.5]dec-1-ene-8-sulfonyl]-ethyl}-benzamide], the “cAMP production activity (%)” value stood at 50%.

Take `Cc1cc(C(=O)N(C)C)ccc1CCS(=O)(=O)N1CCC2(CC1)N=C(C1(C(F)(F)F)CCCC1)NC2=O` [Compound 138, 3,N,N-trimethyl-4-{2-[4-oxo-2-(1-trifluoromethyl-cyclopentyl)-1,3,8-triaza-spiro[4.5]dec-1-ene-8-sulfonyl]-ethyl}-benzamide]: the “cAMP production activity (%)” value came to 49%.

As to `Cc1cc(C(=O)N(C)C)ccc1CCS(=O)(=O)N1CCC2(CC1)N=C(c1ccc(C(F)(F)F)cc1F)NC2=O` [Compound 139, 4-{2-[2-(2-fluoro-4-trifluoromethyl-phenyl)-4-oxo-1,3,8-triaza-spiro[4.5]dec-1-ene-8-sulfonyl]-ethyl}-3,N,N-trimethyl-benzamide], the “cAMP production activity (%)” value worked out at 64%.

On to `Cc1cc(C(=O)N(C)C)ccc1CCS(=O)(=O)N1CCC2(CC1)N=C(c1cccc(OC(F)(F)C(F)F)c1)NC2=O` [Compound 140, 3,N,N-trimethyl-4-(2-{4-oxo-2-[3-(1,1,2,2-tetrafluoro-ethoxy)-phenyl]-1,3,8-triaza-spiro[4.5]dec-1-ene-8-sulfonyl}-ethyl)-benzamide], for which the “cAMP production activity (%)” value was 77%.

Consider `C/C=C/C1=NC2(CCN(S(=O)(=O)CCc3ccc(C(=O)N(C)C)cc3C)CC2)C(=O)N1` [Compound 141, 3,N,N-trimethyl-4-{2-[4-oxo-2-((E)-propenyl)-1,3,8-triaza-spiro[4.5]dec-1-ene-8-sulfonyl]-ethyl}-benzamide], for which the “cAMP production activity (%)” value is reported as 32%.

Regarding `Cc1cc(C(=O)N(C)C)ccc1CCS(=O)(=O)N1CCC2(CC1)N=C(/C=C/c1ccccc1)NC2=O` [Compound 142, 3,N,N-trimethyl-4-{2-[4-oxo-2-((E)-styryl)-1,3,8-triaza-spiro[4.5]dec-1-ene-8-sulfonyl]-ethyl}-benzamide], the “cAMP production activity (%)” value was determined as 63%.

Take `Cc1cc(C(=O)N(C)C)ccc1CCS(=O)(=O)N1CCC2(CC1)N=C(c1ccc3ncsc3c1)NC2=O` [Compound 143, 4-[2-(2-benzothiazol-6-yl-4-oxo-1,3,8-triaza-spiro[4.5]dec-1-ene-8-sulfonyl)-ethyl]-3,N,N-trimethyl-benzamide]: the “cAMP production activity (%)” value is 4.5%.

As for `COc1ccc(C2=NC3(CCN(S(=O)(=O)CCc4ccc(C(=O)N(C)C)cc4C)CC3)C(=O)N2)cc1C(F)(F)F` [Compound 144, 4-{2-[2-(4-methoxy-3-trifluoromethyl-phenyl)-4-oxo-1,3,8-triaza-spiro[4.5]dec-1-ene-8-sulfonyl]-ethyl}-3,N,N-trimethyl-benzamide], the “cAMP production activity (%)” value amounted to 59%.

For `CC(=O)Nc1ccc(CCS(=O)(=O)N2CCC3(CC2)N=C(c2cccc(C)c2)NC3=O)c(C)c1` [Compound 145, N-{3-Methyl-4-[2-(4-oxo-2-m-tolyl-1,3,8-triaza-spiro[4.5]dec-1-ene-8-sulfonyl)-ethyl]-phenyl}-acetamide], the “cAMP production activity (%)” value turned out to be 129%.

`CC(=O)Nc1ccc(CCS(=O)(=O)N2CCC3(CC2)N=C(c2cccc(C)c2C)NC3=O)c(C)c1` [Compound 146, N-(4-{2-[2-(2,3-dimethyl-phenyl)-4-oxo-1,3,8-triaza-spiro[4.5]dec-1-ene-8-sulfonyl]-ethyl}-3-methyl-phenyl)-acetamide]: the “cAMP production activity (%)” value worked out at 122%.

Consider `CC(=O)Nc1ccc(CCS(=O)(=O)N2CCC3(CC2)N=C(c2cccc(Cl)c2Cl)NC3=O)c(C)c1` [Compound 147, N-(4-{2-[2-(2,3-dichloro-phenyl)-4-oxo-1,3,8-triaza-spiro[4.5]dec-1-ene-8-sulfonyl]-ethyl}-3-methyl-phenyl)-acetamide], for which the “cAMP production activity (%)” value turned out to be 105%.

Regarding `CC(=O)Nc1ccc(CCS(=O)(=O)N2CCC3(CC2)N=C(C2CCC(C)CC2)NC3=O)c(C)c1` (stereo not drawn) [Compound 148, N-(3-methyl-4-{2-[2-(4-methyl-cyclohexyl)-4-oxo-1,3,8-triaza-spiro[4.5]dec-1-ene-8-sulfonyl]-ethyl}-phenyl)-acetamide], the “cAMP production activity (%)” value amounted to 79%.

For the compound `CC(=O)N(CCO)c1ccc(CCS(=O)(=O)N2CCC3(CC2)N=C(c2cccc(OC(F)(F)F)c2)NC3=O)c(C)c1` [Compound 149, N-(2-Hydroxy-ethyl)-N-(3-methyl-4-{2-[4-oxo-2-(3-trifluoromethoxy-phenyl)-1,3,8-triaza-spiro[4.5]dec-1-ene-8-sulfonyl]-ethyl}-phenyl)-acetamide], the “cAMP production activity (%)” value is recorded as 56%.

`CC(=O)OC[C@H](CN(C(C)=O)c1ccc(CCS(=O)(=O)N2CCC3(CC2)N=C(c2cccc(C(F)(F)F)c2)NC3=O)c(C)c1)OC(C)=O` [Compound 150, Acetic acid (S)-1-acetoxymethyl-2-[acetyl-(3-methyl-4-{2-[4-oxo-2-(3-trifluoromethyl-phenyl)-1,3,8-triaza-spiro[4.5]dec-1-ene-8-sulfonyl]-ethyl}-phenyl)-amino]-ethyl ester]: the “cAMP production activity (%)” value came out at 62%.

For `CC(=O)OC[C@H](CN(C(C)=O)c1ccc(CCS(=O)(=O)N2CCC3(CC2)N=C(c2ccc(C(F)(F)F)cc2)NC3=O)c(C)c1)OC(C)=O` [Compound 151, acetic acid (S)-1-acetoxymethyl-2-[acetyl-(3-methyl-4-{2-[4-oxo-2-(4-trifluoromethyl-phenyl)-1,3,8-triaza-spiro[4.5]dec-1-ene-8-sulfonyl]-ethyl}-phenyl)-amino]-ethyl ester], the “cAMP production activity (%)” value came out at 53%.

As to `CC(=O)OC[C@H](CN(C(C)=O)c1ccc(CCS(=O)(=O)N2CCC3(CC2)N=C(c2ccc(OC(F)(F)F)cc2)NC3=O)c(C)c1)OC(C)=O` [Compound 152, acetic acid (S)-1-acetoxymethyl-2-[acetyl-(3-methyl-4-{2-[4-oxo-2-(4-trifluoromethoxy-phenyl)-1,3,8-triaza-spiro[4.5]dec-1-ene-8-sulfonyl]-ethyl}-phenyl)-amino]-ethyl ester], the “cAMP production activity (%)” value was found to be 47%.
